Data reported in PMC9612231, “Antileishmanial Anthracene Endoperoxides: Efficacy In Vitro, Mechanisms and Structure-Activity Relationships” (Molecules, 2022).

Columns and labels:
[1] = Formation of the xylenol orange/Fe3+ complex by EP; details: for Log10 (Formation Rate) / XO/Fe^3+ Formation Rate: AcEP and 250 µM FeSO4 in methanol/H2O (9:1); for XO/Fe^3+ Formation Rate: mean ± SD of 3 experiments
From the text: In subsequent experiments, we explored the activation of EP and possible cellular consequences of these compounds in Leishmania. In a chemical system, we tested how fast EP react with iron (II) and, therefore, lead to the activation of these compounds. Resulting iron (III) was detected as complex with xylenol orange (XO, Figure 3). The reaction rate of the EP stretched across two magnitudes of orders (Table 3). On the first view, there is no direct link between the activation rates and the efficiency of the compounds against Leishmania.
XO (125 µM) and butylated hydroxytoluene (4 mM) were dissolved in MeOH/H2O (9:1). FeSO4 (25 mM) in 2.5 M H2SO4 was prepared immediately before use (final concentration of 250 µM FeSO4 in the color reagent). An aliquot of 100 µL EP solution (final concentration of 100 µM) was transferred into a disposable cuvette (BRAND, Wertheim, Germany), and 1 mL of the color reagent was added. The EP that reacted slower were incubated for 0, 30, 60, and 90 min at 25 °C. The EP that reacted faster were measured every 5 s over 5 min. At these time points, the OD difference of the sample at 560 nm and 650 nm was determined using a MS1501 UV–VIS diode array spectrophotometer (Shimadzu, Kyoto, Japan). As reference, a mixture of MeOH/H2O (9:1) was used. The slope of the reaction rate was calculated using an extinction coefficient of 1.5 × 10^4 M^−1 cm^−1.

[2] = test system: Leishmania tarentolae promastigotes (LtP); test: LtP viability combination assay with NAC or PIH; assay type: cell-based; details: 2 × 10^6 LtP/mL; for Change of IC50 value in LtP by addition of PIH: 50 µM PIH; for Change of IC50 value in LtP by addition of NAC: 2 mM NAC
From the text: Based on the findings from chemical test systems, we studied the actual activation of these EP compounds in LtP. For this purpose, we used the established viability assays for Leishmania and studied how IC50 values were changed by the presence of the typical radical scavenger N-acetyl cysteine (NAC) or the iron chelator for low molecular iron pyridoxal isonicotinoyl hydrazine (PIH). We expressed the changes of the IC50 values in the presence of these additional compounds in percent, referring to the original IC50 values in LtP set to 100% (Figure 8). […] Likewise, in the presence of the iron chelator PIH, the IC50 values of most EP in LtP shifted to higher values.
Assay medium of YEM (20.7 g/L yeast extract powder, 1.2 g/L K2HPO4, 0.2 g/L KH2PO4, 2.9 g/L glucose, pH 7.4) and PBS (1:1, v/v), 25,000 U/L penicillin, 25 mg/L streptomycin, and 7.7 µM hemin was prepared. Aliquots of 200 µL of this medium and 2 × 10^6 LtP/mL (where required) were distributed in non-treated cell culture 96-well plates. Compounds (dissolved in DMSO) were added with starting concentrations of 25 µM (Pen) or 200 µM (AcEP/Ac), and then, serial dilutions were carried out resulting in a set of concentrations (25, 5, 1, 0.2, 0.04, and 0.008 µM) or (200, 40, 8, 1.6, 0.32, and 0.064 µM). For each compound concentration, at least triplicates on each plate were performed. After incubation of the plates at 27 °C for 48 h, 50 µL of resazurin solution (final concentration in wells 20 µM) was added to each well and after 4 h of incubation, the fluorescence was measured at 560 nm excitation and 590 nm emission using a plate reader (Perkin Elmer EnSpire, Rodgau, Germany) (adapted from). Combination assays for viability in the presence of PIH and NAC were performed the same way. However, one half of the plate was filled with YEM/PBS with 2 × 10^6 LtP/mL, and the other half of the plate was filled with YEM/PBS with 2 × 10^6 LtP/mL supplemented with non-toxic concentrations of PIH (50 µM) or NAC (2 mM), so that for each plate, two compounds were tested with and without the presence of PIH or NAC. All tests were repeated at least on four different weeks of cultivation.

LtP = test: Cellular oxygen consumption of LtP (OxoPlates); assay type: cell-based, Leishmania tarentolae; details: 200 µM compound, 140 × 10^6 cells/mL
From the text: The experimental data so far indicate that in more complex EP not only the endoperoxyl group contributes to its pharmacological actions. Therefore, mitochondria present in the parasites but also in the host cells could be either a trigger for activating pharmacological actions of these compounds or a target of EP-derived radicals generated at other sites in the cell. In a subsequent experiment, we tested the influence of AcEP and non-endoperoxidic analogs (Ac) on the mitochondrial oxygen consumption in LtP and J774 macrophages (Figure 9).
Oxygen consumption rates of LtP in complete BHI culture medium and J774 in PBS-gluc treated with AcEPs were measured using round-bottomed OxoPlates (OP96U, Precision Sensing GmbH, Regensburg, Germany). […] Then, the fluorescence of both calibration media was measured at a microplate reader (Perkin Elmer EnSpire, Rodgau, Germany) in a dual kinetic mode, using an excitation wavelength of 540 nm for both dyes and emission wavelengths of 650 nm for the indicator dye and 590 nm for the reference dye. The ratio of both fluorescence intensities (IR) was calculated for each well and averaged giving the two calibration constants k0 (oxygen-free) or k100 (air-saturated). […] Both fluorescence intensities of each well were determined in 5 min intervals over up to 40 min. Each compound was measured in quadruplicates. […]

Row | Change of IC50 value in LtP by addition of PIH [2] | Structure (SMILES) | Log10 (Formation Rate) [1] | XO/Fe^3+ Formation Rate [1] | Change of IC50 value in LtP by addition of NAC [2] | Inhibition of mitochondrial oxygen consumption in LtP (LtP) | Activation by iron (II), in words ([1]; XO assay)
1 | increase of IC50 values | C[n+]1ccc(C23OOC(c4cc[n+](C)cc4)(c4ccccc42)c2ccccc23)cc1 [Compound 1062MeAcEP] | 2.78 | 609 ± 27 nmol/min | higher IC50 values in the presence of the thiol NAC | – | –
2 | increase of IC50 values | c1ccc(C23OOC(c4ccccc4)(c4ccccc42)c2ccccc23)cc1 [DPAcEP] | 2.83 | 677 ± 86 nmol/min | did not respond, but rather displayed even lower IC50 values | – | –
3 | increase of IC50 values | COc1ccccc1C12OOC(c3ccccc3OC)(c3ccccc31)c1ccccc12 [oOMeAcEP] | 2.73 | 545 ± 17 nmol/min | did not respond, but rather displayed even lower IC50 values | – | –
4 | no increase was observed | c1ccc(C23OOC(c4ccccn4)(c4ccccc42)c2ccccc23)nc1 [oPyAcEP] | 4.91 | 81,700 ± 11,921 nmol/min | higher IC50 values in the presence of the thiol NAC | – | –
5 | – | CC(C)(C)c1ccc2c(-c3cccnc3)c3ccccc3c(-c3cccnc3)c2c1 [mPyBuAc] | – | – | – | even stronger inhibition | –
6 | increase of IC50 values | CC(C)(C)c1ccc2c(c1)C1(c3cccnc3)OOC2(c2cccnc2)c2ccccc21 (centres unmarked) [mPyBuAcEP] | 2.86 | 731 ± 111 nmol/min | higher IC50 values in the presence of the thiol NAC | interfered strongly | rather slow activation by iron (II)
